# Source: patent US5436263A, “Inhibitors of farnesyl-protein transferase” (Merck & Co., Inc., priority 1994, dated 1995)
# Experiments:
# [1] = target: T1, bovine FPTase (Bos taurus, UniProt P29702+P49355); experiment: In vitro inhibition of Ras farnesyl-protein transferase, partially purified bovine FPTase; assay type: biochemical; settings: Ras-CVLS substrate, [3H]-FPP, pH 7.4, 31° C., 60 min, concentration giving 50% inhibition of FPTase, read-out: Inhibition of RAS farnesylation IC50, bovine
# T1 construct: Farnesyl-protein transferase (FPTase) from bovine brain; from tissue; host or cells: bovine brain
# Method: The intrinsic farnesyl-protein transferase (FPTase) activity of representative compounds of this invention was measured by the assay as described below:
# Farnesyl-protein transferase (FPTase) from bovine brain was chromatographed on DEAE-Sephacel (Pharmacia, 0-0.8M NaCl gradient elution), N-octyl agarose (Sigma, 0-0.6M NaCl gradient elution), and a mono Q HPLC column (Pharmacia, 0-0.3M NaCl gradient). Ras-CVLS (Cys-Val-Leu-Ser) at 3.5 mM, […] [^3 H]FPP, and the indicated compounds were incubated with this partially purified enzyme preparation. The FPTase inhibition data presented below is a measurement of the ability of the test compound to inhibit Ras farnesylation in vitro.
# Assays of farnesyl-protein transferase. Partially purified bovine FPTase and Ras peptides (Ras-CVLS, Ras-CVIM and RAS-CAIL) were prepared as described by Schaber et al. J. Biol. Chem. 265:14701-14704 (1990) and Gibbs et al. PNAS U.S.A. 86:6630-6634 (1989), respectively. […] Precipitates were collected onto filter-mats using a TomTec Mach H cell harvestor, washed with 100% ethanol, dried and counted in an LKB β-plate counter. […] Percentage inhibition is measured by the amount of incorporation of farnesyl in the presence of the test compound when compared to the amount of incorporation in the absence of the test compound.
# [2] = target: T2, human FPTase (Homo sapiens, UniProt P49354+P49356); experiment: In vitro inhibition of Ras farnesyl-protein transferase, human FPTase; assay type: biochemical; settings: 100 nM Ras-CVIM, 0.1% PEG 20,000, 10 μM ZnCl2, 30 min, concentration giving 50% inhibition of FPTase, read-out: Inhibition of RAS farnesylation IC50, human
# T2 construct: made in house
# Method: Inhibitory activity of the compounds of the instant invention may also be measured with an assay employing the recombinant human FPTase obtained as described by C. A. Omer et al. (Biochemistry, 32:5167-5176 (1993)).
# Assays of farnesyl-protein transferase. Partially purified bovine FPTase and Ras peptides (Ras-CVLS, Ras-CVIM and RAS-CAIL) were prepared as described by Schaber et al. J. Biol. Chem. 265:14701-14704 (1990) and Gibbs et al. PNAS U.S.A. 86:6630-6634 (1989), respectively. Bovine FPTase was assayed in a volume of […] containing 100 mM N-(2-hydroxy ethyl) piperazine-N'-(2-ethane sulfonic acid) (HEPES), pH 7.4, 5 mM MgCl2, 5 mM dithiothreitol (DTT), […] [^3 H]-farnesyl diphosphate ([^3 H]-FPP; 740 CBq/mmol, New England Nuclear), 650 nM Ras-CVLS and 10 μg/ml FPTase at 31° C. for 60 min. Reactions were initiated with FPTase and stopped with 1 ml of 1.0M HCL in ethanol. Precipitates were collected onto filter-mats using a TomTec Mach H cell harvestor, washed with 100% ethanol, dried and counted in an LKB β-plate counter. The assay was linear with respect to both substrates, FPTase levels and time; less than 10 % of the [^3 H]-FPP was utilized during the reaction period. […] Percentage inhibition is measured by the amount of incorporation of farnesyl in the presence of the test compound when compared to the amount of incorporation in the absence of the test compound. […]
# [3] = system: Ras farnesylation; settings: HMG-CoA reductase inhibitors, Hancock et al., Casey et al., Schafer et al.; cited from earlier work
SMILES,IC50 [1] [nM],IC50 [2] [nM],Inhibition of Ras farnesylation in vivo [3]
"COC(=O)C1=CC(COC(C)=O)=COc2oc3cccc(OC(C)=O)c3c(=O)c21 [Compound 2, 7-acetyloxy-3-[(acetyloxy)methyl]-6-oxo-6H-oxepino[2,3-b][1]benzopyran-5-carboxylic acid methyl ester]",1000,,
"COC(=O)C1=CC(CO)=COc2oc3cccc(O)c3c(=O)c21 [Compound 1, 7-hydroxy-3-(hydroxymethyl)-6-oxo-6H-oxepino[2,3-b][1]benzopyran-5-carboxylic acid methyl ester]",300,2700,
CC[C@H](C)C(=O)O[C@H]1CCC=C2C=C[C@H](C)[C@H](CC[C@@H]3C[C@@H](O)CC(=O)O3)[C@H]21 [compactin],,,Inhibition of Ras farnesylation in vivo has been demonstrated
CC[C@H](C)C(=O)O[C@H]1C[C@@H](C)C=C2C=C[C@H](C)[C@H](CC[C@@H]3C[C@@H](O)CC(=O)O3)[C@H]21 [lovastatin],,,Inhibition of Ras farnesylation in vivo has been demonstrated
